We go through 12 substances from patent publication US9260504B2, “N- and C-terminal substituted antagonistic analogs of GH-RH” (University of Miami, priority 2008, dated 2016).

Common to all, as to format: in vivo
The test system of test [1] is PC-3 human hormone-independent prostate cancer. Kind of test: PC-3 human prostate cancer xenografts in nude mice, Experiment 3. The following applies: 2 μg/day s.c., 28 days. As for the experimental part:
(§1) Male nude mice were implanted s.c. with 3 mm^3 pieces of PC-3 human hormone-independent prostate cancer tissue on both flanks. When tumors reached a volume of approximately 50 mm^3, the mice were divided into 12 experimental groups with 8 to 10 animals in each group and received single daily injections for 28 days as follows: 1. Control (vehicle solution); 2. JMR-132 (10 μg/day s.c.); 3. Peptide 11113 (2 μg/day s.c.); 4. Peptide 11119 (2 μg/day s.c.); 5. Peptide 11209 (2 μg/day s.c.); 6. Peptide 11313 (2 μg/day s.c.); 7. Peptide 11408 (2 μg/day s.c.); 8. Peptide 11435 (2 μg/day s.c.); 9. Peptide 11457 (2 μg/day s.c.); 10. Peptide 11459 (2 μg/day s.c.); 11. Peptide 11469 (2 μg/day s.c.); 12. Peptide 11491 (2 μg/day s.c.).
(§2) Tumor volumes were measured once a week. The experiment was ended on day 28 by sacrificing the mice under Isoflurane anesthesia. Resulting tumors were cleaned, weighed, and snap-frozen until further analyses. Statistical analyses of the measurement results were done by two-tailed t-test, p<0.05 being considered significant.

Test [2] relates to H-460 human non-small cell lung cancer. Kind of test: H-460 human non-SCLC xenografts in nude mice, Experiment 2. The following applies: 5 μg/day s.c.; for Tumor growth after 4 weeks (%): 28 days, means±S.E.; for Inhibition (%): after 4 weeks. As for the experimental part:
Male nude mice were implanted s.c. with 3 mm^3 pieces of H-460 human non-SCLC tumor tissue on both flanks. When tumors had grown to a mean volume of approximately 90 mm^3, the mice were randomly assigned into 12 experimental groups with 8 to 10 animals in each group and received single daily injections for 28 days as follows: 1. Control (vehicle solution); 2. JMR-132 (10 μg/day s.c.); 3. Peptide 11109 (5 μg/day s.c.); 4. Peptide 11113 (5 μg/day s.c.); 5. Peptide 11119 (5 μg/day s.c.); 6. Peptide 11209 (5 μg/day s.c.); 7. Peptide 11313 (5 μg/day s.c.); 8. Peptide 11408 (5 μg/day s.c.); 9. Peptide 11435 (5 μg/day s.c.); 10. Peptide 11459 (5 μg/day s.c.); 11. Peptide 11469 (5 μg/day s.c.); 12. Peptide 11491 (5 μg/day s.c.). Tumor volumes were measured once a week. The experiment was ended on day 28 by sacrificing the mice under Isoflurane anesthesia. Resulting tumors were cleaned, weighed, and snap-frozen until further analyses. Statistical analyses of the measurement results were done by two-tailed t-test, p<0.05 being considered significant. Data are presented as the means±S.E.
On the technique in general: Xenograft models place foreign cells or tissue in a host animal.

The test system of test [3] is PC-3 human hormone-independent prostate cancer. In words: PC-3 human prostate cancer xenografts in nude mice, Experiment 4. Particulars: for Tumor growth after 28 days (%) / Tumor growth after 46 days (%) / Inhibition (%): 2 μg/day s.c.; for Inhibitory effect on PC-3 tumors compared with reference peptide JMR-132: 2 μg/day vs JMR-132 10 μg/day, after 46 days of treatment. As for the experimental part: as §1, §2
All experimental details of Experiment 4 are the same as for Experiment 3, with the following difference. When tumors reached a volume of approximately 50 mm^3, the mice were divided into 11 experimental groups with 8 to 10 animals in each group and received single daily injections for 46 days as follows: 1. Control (vehicle solution); 2. JMR-132 (10 μg/day s.c.); 3. Peptide 11123 (2 μg/day s.c.); 4. Peptide 11125 (2 μg/day s.c.); 5. Peptide 11213 (2 μg/day s.c.); 6. Peptide 11433 (2 μg/day s.c.); 7. Peptide 11473 (2 μg/day s.c.); 8. Peptide 11485 (2 μg/day s.c.); 9. Peptide 11497 (2 μg/day s.c.); 10. Peptide 11499 (2 μg/day s.c.); 11. Peptide 11521 (2 μg/day s.c.). Tumor volumes were measured once a week. The experiment was ended on day 46 by sacrificing the mice under Isoflurane anesthesia. Resulting tumors were cleaned, weighed, and snap-frozen until further analyses. Statistical analyses of the measurement results were done by two-tailed t-test, p<0.05 being considered significant.

In test [4] the test system is H-460 human non-small cell lung cancer. In words: H-460 human non-SCLC xenografts in nude mice, Experiment 3. Particulars: 28 days; for Tumor growth inhibition after 4 weeks (%): 5 μg/day s.c.; for Inhibition of H-460 lung tumor growth compared with reference peptide JMR-132: 5 μg/day vs JMR-132 10 μg/day. As for the experimental part: Male nude mice were implanted s.c. with 3 mm^3 pieces of H-460 human non-SCLC tumor tissue on both flanks. When tumors had grown to a mean volume of approximately 90 mm^3, the mice were randomly assigned into 8 experimental groups with 8 to 10 animals in each group and received single daily injections for 28 days as follows: 1. Control (vehicle solution); 2. JMR-132 (10 μg/day s.c.); 3. Peptide 11123 (5 μg/day s.c.); 4. Peptide 11125 (5 μg/day s.c.); 5. Peptide 11307 (5 μg/day s.c.); 6. Peptide 11317 (5 μg/day s.c.); 7. Peptide 11473 (5 μg/day s.c.); 8. Peptide 11485 (5 μg/day s.c.). Tumor volumes were measured once a week. The experiment was ended on day 28 by sacrificing the mice under Isoflurane anesthesia. Resulting tumors were cleaned, weighed, and snap-frozen until further analyses. Statistical analyses of the measurement results were done by two-tailed t-test, p<0.05 being considered significant.

Test [5] has as its system NCI-N87 human gastric cancer. In words: NCI-N87 human gastric cancer xenografts in nude mice. The following applies: 10 μg/day s.c. As for the experimental part: NCI-N87 cancers were transplanted s.c. into both flank areas of 30 female nude mice. The mice were randomly assigned into 4 experimental groups with 6 to 9 animals in each group and received single daily injections for 77 days as follows: 1. Control (vehicle solution); 2. JMR-132 (10 μg/day s.c.); 3. Peptide 1109 (10 μg/day s.c.); 4. Peptide 11479 (10 μg/day s.c.). Tumor volumes were measured once a week. The experiment was ended on day 77 by sacrificing the mice under Isoflurane anesthesia. Resulting tumors were cleaned, weighed, and snap-frozen until further analyses. Statistical analyses of the measurement results were done by two-tailed t-test, p<0.05 being considered significant. Data are presented as the means±S.E.

With “[(Ac-Ada)^0-Tyr^1, D-Arg^2, Cpa^6, Ala^8, Har^9, Tyr(Me)^10, His^11, Orn^12, Abu^15, His^20, Orn^21, Nle^27, D-Arg^28, Har^29]hGH-RH(1-29)NH2 [Peptide 11435]”, in test [1], the “Tumor growth inhibition after 4 weeks (%)” value was found to be 75.11%. Further, in test [2], the “Tumor growth after 4 weeks (%)” value was determined as 4170 ± 2064% and the “Inhibition (%)” value is recorded as 47.17%.

On to “[(CH3—(CH2)10—CO-Ada)^0-Tyr^1, D-Arg^2, Cpa^6, Ala^8, Har^9, Tyr(Me)^10, His^11, Abu^15, His^20, Nle^27, D-Arg^28, Har^29]hGH-RH(1-29)NH2 [Peptide 11125]”, for which, in test [3], the “Tumor growth after 28 days (%)” value came out at 424%, the “Tumor growth after 46 days (%)” value amounted to 1009% and the “Inhibitory effect on PC-3 tumors compared with reference peptide JMR-132” value is recorded as “had a more potent inhibitory effect than reference peptide JMR-132”. In addition, the “Inhibition (%)” value in test [3] (after 28 days) is given as 68.97%. Besides, in test [3] (after 46 days), the “Inhibition (%)” value is listed as 69.69%. Also, in test [4], the “Tumor growth inhibition after 4 weeks (%)” value is listed as 33.03% and the “Inhibition of H-460 lung tumor growth compared with reference peptide JMR-132” value was “more potently inhibited the growth of H-460 lung tumors than the reference peptide JMR-132”.

Turning to “[(Ac-Amc)-Tyr^1, D-Arg^2, Cpa^6, Ala^8, Har^9, Tyr(Me)^10, His^11, Orn^12, Abu^15, His^20, Nle^27, D-Arg^28, Har^29-Amc^30]hGH-RH(1-29)NH2 [Peptide 11307]”, in test [4], the “Tumor growth inhibition after 4 weeks (%)” value was found to be 30.98% and the “Inhibition of H-460 lung tumor growth compared with reference peptide JMR-132” value was “more potently inhibited the growth of H-460 lung tumors than the reference peptide JMR-132”.

For the substance “[(Dca-Ada)^0-Tyr^1, D-Arg^2, (Phe(F)5)^6, Ala^8, Har^9, Tyr(Me)^10, His^11, Orn^12, Abu^15, His^20, Orn^21, Nle^27, D-Arg^28, Har^29]hGH-RH(1-29)NH2 [Peptide 11491]”, the “Tumor growth inhibition after 4 weeks (%)” value in test [1] is 72.43%. For the same substance, in test [2], the “Tumor growth after 4 weeks (%)” value came to 1926 ± 473% and the “Inhibition (%)” value was found to be 75.60%.

As to “[(Dca-Ada)^0-Tyr^1, D-Arg^2, Cpa^6, Ala^8, Har^9, Tyr(Me)^10, His^11, Abu^15, His^20, Nle^27, D-Arg^28, Har^29]hGH-RH(1-29)NH2 [Peptide 11123]”, in test [3], the “Tumor growth after 28 days (%)” value is listed as 786% and the “Tumor growth after 46 days (%)” value is given as 1849%. The “Inhibition (%)” value in test [3] (after 28 days) worked out at 42.57%. Besides, the “Inhibition (%)” value in test [3] (after 46 days) stood at 44.48%. Also, in test [4], the “Tumor growth inhibition after 4 weeks (%)” value is given as 35.74% and the “Inhibition of H-460 lung tumor growth compared with reference peptide JMR-132” value was “more potently inhibited the growth of H-460 lung tumors than the reference peptide JMR-132”.

For “[PhAc^0-Tyr^1, D-Arg^2, Cpa^6, Ala^8, Har^9, Tyr(Me)^10, His^11, Abu^15, His^20, Nle^27, D-Arg^28, Har^29-Apa^30]hGH-RH(1-29)NH2 [Peptide 11209]”, the “Tumor growth inhibition after 4 weeks (%)” value in test [1] is on record as 48.04%. For the same substance, in test [2], the “Tumor growth after 4 weeks (%)” value was found to be 6377 ± 2477% and the “Inhibition (%)” value is listed as 19.21%.

In the case of “[(Ac-Amc)^0-Tyr^1, D-Arg^2, Cpa^6, (Me-Ala)^8, Har^9, Tyr(Me)^10, His^11, Abu^15, His^20, Nle^27, D-Arg^28, Har^29]hGH-RH(1-29)NH2 [Peptide 11408]”, in test [1], the “Tumor growth inhibition after 4 weeks (%)” value stood at 63.61%. In test [2], the “Tumor growth after 4 weeks (%)” value is on record as 3998 ± 1113% and the “Inhibition (%)” value amounted to 49.35%.

“[(CH3—(CH2)10CO-Ada)^0-Tyr^1, D-Arg^2, Cpa^6, Ala^8, Har^9, Tyr(Me)^10, His^11, Orn^12, Abu^15, His^20, Orn^21, Nle^27, D-Arg^28, Har^29-Ada^30]hGH-RH(1-29)NH2 [Peptide 11485]”: in test [3], the “Tumor growth after 28 days (%)” value was 794%, the “Tumor growth after 46 days (%)” value was determined as 1257% and the “Inhibitory effect on PC-3 tumors compared with reference peptide JMR-132” value is reported as “had a more potent inhibitory effect than reference peptide JMR-132”. Moreover, in test [3] (after 28 days), the “Inhibition (%)” value amounted to 41.96%. For the same substance, the “Inhibition (%)” value in test [3] (after 46 days) is recorded as 62.24%. The “Tumor growth inhibition after 4 weeks (%)” value in test [4] is given as 9.04%.

For the substance “[(Ac-Ada)^0-Tyr^1, D-Arg^2, (Phe(F)5)^6, Ala^8, Har^9, Tyr(Me)^10, His^11, Orn^12, Abu^15, His^20, Orn^21, Nle^27, D-Arg^28, Har^29]hGH-RH(1-29)NH2 [Peptide 11479]”, in test [5] (77 days), the “Number of regressing tumors” value is given as 1. The “Tumor growth after 77 days (%)” value in test [5] (77 days, means±S.E.) turned out to be 235 ± 48 %. The “Tumor weights” value in test [5] (day 77, means±S.E.) is reported as 144 ± 41 mg. Moreover, in test [5] (calculated without the regressing tumors), the “Tumor doubling time” value was 156.7 ± 55.7 days.

Consider “[(PhAc^0-Ada)-Tyr^1, D-Arg^2, Cpa^6, Ala^8, Har^9, Tyr(Me)^10, His^11, Orn^12, Abu^15, His^20, Orn^21, Nle^8, D-Arg^28, Har^29-Ada^30]hGH-RH(1-29)NH2 [Peptide 11473]”, for which, in test [3], the “Tumor growth after 28 days (%)” value stood at 442%, the “Tumor growth after 46 days (%)” value was determined as 1072% and the “Inhibitory effect on PC-3 tumors compared with reference peptide JMR-132” value is listed as “had a more potent inhibitory effect than reference peptide JMR-132”. The “Inhibition (%)” value in test [3] (after 28 days) is reported as 67.68%. The “Inhibition (%)” value in test [3] (after 46 days) is given as 67.80%. In test [4], the “Tumor growth inhibition after 4 weeks (%)” value came to 54.64% and the “Inhibition of H-460 lung tumor growth compared with reference peptide JMR-132” value is given as “more potently inhibited the growth of H-460 lung tumors than the reference peptide JMR-132”.

On to “[(Ac-Ada)^0-Tyr^1, D-Arg^2, Cpa^6, Ala^8, Har^9, Tyr(Me)^10, His^11, Abu^15, His^20, Nle^27, D-Arg^28, Har^29-Ada^30]hGH-RH(1-29)NH2 [Peptide 11317]”, for which, in test [4], the “Tumor growth inhibition after 4 weeks (%)” value is 41.00% and the “Inhibition of H-460 lung tumor growth compared with reference peptide JMR-132” value is given as “more potently inhibited the growth of H-460 lung tumors than the reference peptide JMR-132”.

Consider “[(PhAc^0-Ada)-Tyr^1, D-Arg^2, Cpa^6, Ala^8, Har^9, Tyr(Me)^10, His^11, Orn^12, Abu^15, His^20, Orn^21, Nle^27, D-Arg^28, Har^29]hGH-RH(1-29)NH2 [Peptide 11459]”, for which the “Tumor growth inhibition after 4 weeks (%)” value in test [1] came out at 53.60%. Also, in test [2], the “Tumor growth after 4 weeks (%)” value is 2418 ± 923% and the “Inhibition (%)” value was determined as 69.36%.
